What all share (assay type): functional
One assay concerns Pseudomonas aeruginosa. Briefly: Antibacterial activity against Pseudomonas aeruginosa ATCC 27853 a after 24 hrs by micro broth dilution assay. The conditions noted are these: ATCC 27853, 24 h.
Another assay relates to Escherichia coli. Briefly: Antibacterial activity against Escherichia coli DH52 after 24 hrs by micro broth dilution assay. The note with it: DH52, 24 h. For orientation: Broth dilution looks for growth in wells or tubes with falling amounts of substance.
The next assay has as its system Candida albicans. Briefly: Antifungal activity against Candida albicans ATCC 10231 after 24 hrs by micro broth dilution assay. The note with it: ATCC 10231, 24 h.
Assay [1] concerns Bacillus spizizenii. Description: Antibacterial activity against Bacillus subtilis ATCC 6633 after 24 hrs by micro broth dilution assay. The note with it: ATCC 6633, 24 h.
Assay [2] has as its system Staphylococcus aureus. Briefly: Antibacterial activity against Staphylococcus aureus ATCC 25923 after 24 hrs by micro broth dilution assay. The conditions noted are these: ATCC 25923, 24 h.
The next assay relates to Saccharomyces cerevisiae. Briefly: Antifungal activity against Beer yeast ATCC 9763 after 24 hrs by micro broth dilution assay. The conditions noted are these: ATCC 9763, 24 h.
The subject of the next assay is Micrococcus luteus. Description: Antibacterial activity against Micrococcus luteus ATCC 4698 after 24 hrs by micro broth dilution assay. The note with it: ATCC 4698, 24 h.
The subject of the next assay is Aspergillus flavus. Description: Antifungal activity against Aspergillus flavus ATCC 204304 after 24 hrs by micro broth dilution assay. The note with it: ATCC 204304, 24 h.
For assay [3], the system named is Bacillus spizizenii. Briefly: Ratio of chloromycin MIC to compound MIC for Bacillus subtilis ATCC 6633.
Assay [4] concerns Staphylococcus aureus. Description: Antibacterial activity against methicillin-resistant Staphylococcus aureus N315 after 24 hrs by micro broth dilution assay. The conditions noted are these: N315, 24 h.
The test system of another assay is Bacillus sp. Briefly: Antibacterial activity against Bacillus proteus ATCC 13315 after 24 hrs by micro broth dilution assay. The conditions noted are these: Bacillus sp. (in: firmicutes), ATCC 13315, 24 h.
The test system of a further assay is Candida. Briefly: Antifungal activity against Candida mycoderma ATCC 9888 after 24 hrs by micro broth dilution assay. The note with it: ATCC 9888, 24 h.
A further assay relates to Cyberlindnera jadinii. Briefly: Antifungal activity against Candida utilis ATCC 9950 after 24 hrs by micro broth dilution assay. The note with it: Williopsis jadinii, ATCC 9950, 24 h.
The nature of assay [5]: Antibacterial activity against Eberthella typhosa ATCC 14028 after 24 hrs by micro broth dilution assay. The conditions noted are these: ATCC 14028, 24 h.

Values after ≈ are worked out from the molar mass of the structure shown.

For the compound `O=c1c2ccc(F)cc2ncn1CCCCCCn1cnc([N+](=O)[O-])c1`, the MIC (commonly the smallest concentration in the dilution series that meets the test's criterion for growth inhibition) in the assay on Pseudomonas aeruginosa worked out at 360 µM (≈ 129 µg/mL); against Escherichia coli, 180 µM (≈ 64.7 µg/mL); in the assay with Candida albicans, 40 µM (≈ 14.4 µg/mL); in the assay with Bacillus spizizenii [1], 20 µM (≈ 7.19 µg/mL); with Staphylococcus aureus [2], 360 µM (≈ 129 µg/mL); in the assay with Saccharomyces cerevisiae, 90 µM (≈ 32.3 µg/mL). Moreover, the MIC with Micrococcus luteus came to 40 µM (≈ 14.4 µg/mL); in the assay with Aspergillus flavus, 180 µM (≈ 64.7 µg/mL); against Staphylococcus aureus [4], 180 µM (≈ 64.7 µg/mL); against Bacillus sp., 90 µM (≈ 32.3 µg/mL); against Candida, 40 µM (≈ 14.4 µg/mL); against Cyberlindnera jadinii it was 360 µM (≈ 129 µg/mL). For the same compound, in assay [5], it took 360 µM (≈ 129 µg/mL) to inhibit growth (MIC). For the same compound, the Ratio in the assay on Bacillus spizizenii [3] is 5.

Regarding `O=c1c2ccc(F)cc2ncn1CCCCCCBr`, the minimal inhibitory concentration (MIC) with Pseudomonas aeruginosa was greater than 1560 µM; in the assay with Escherichia coli it was 780 µM (≈ 255 µg/mL); against Candida albicans it was 780 µM (≈ 255 µg/mL); with Bacillus spizizenii [1] it was 1560 µM (≈ 510 µg/mL); against Staphylococcus aureus [2] it was greater than 1560 µM; in the assay with Saccharomyces cerevisiae, 780 µM (≈ 255 µg/mL). Besides, the MIC is 390 µM (≈ 128 µg/mL) in the assay with Micrococcus luteus; 1560 µM (≈ 510 µg/mL) against Aspergillus flavus; 390 µM (≈ 128 µg/mL) against Staphylococcus aureus [4]; 390 µM (≈ 128 µg/mL) against Bacillus sp.; greater than 1560 µM against Candida; 390 µM (≈ 128 µg/mL) in the assay with Cyberlindnera jadinii. The MIC in assay [5] is greater than 1560 µM.

Turning to `O=c1c2ccc(F)cc2ncn1CCn1ccnc1`, the MIC in the assay on Pseudomonas aeruginosa is 990 µM (≈ 256 µg/mL); with Escherichia coli, 1980 µM (≈ 511 µg/mL); in the assay on Candida albicans it was 990 µM (≈ 256 µg/mL); in the assay with Bacillus spizizenii [1], greater than 1980 µM; in the assay with Staphylococcus aureus [2] it was greater than 1980 µM; in the assay on Saccharomyces cerevisiae, 500 µM (≈ 129 µg/mL). The minimal inhibitory concentration (MIC) in the assay with Micrococcus luteus was 500 µM (≈ 129 µg/mL); in the assay on Aspergillus flavus it was 500 µM (≈ 129 µg/mL); with Staphylococcus aureus [4] it was 990 µM (≈ 256 µg/mL); in the assay on Bacillus sp., 1980 µM (≈ 511 µg/mL); in the assay with Candida, greater than 1980 µM; with Cyberlindnera jadinii, 990 µM (≈ 256 µg/mL). In addition, in assay [5], the MIC is greater than 1980 µM.

On to `O=c1c2ccc(Cl)cc2ncn1CCCCn1cnc([N+](=O)[O-])c1`, for which the MIC was 740 µM (≈ 257 µg/mL) with Pseudomonas aeruginosa; 740 µM (≈ 257 µg/mL) against Escherichia coli; 90 µM (≈ 31.3 µg/mL) in the assay on Candida albicans; 50 µM (≈ 17.4 µg/mL) against Bacillus spizizenii [1]; 370 µM (≈ 129 µg/mL) in the assay with Staphylococcus aureus [2]; 90 µM (≈ 31.3 µg/mL) against Saccharomyces cerevisiae. Also, the MIC against Micrococcus luteus stood at 50 µM (≈ 17.4 µg/mL); in the assay on Aspergillus flavus, 740 µM (≈ 257 µg/mL); with Staphylococcus aureus [4], 180 µM (≈ 62.6 µg/mL); in the assay with Bacillus sp. it was 370 µM (≈ 129 µg/mL); against Candida it was 740 µM (≈ 257 µg/mL); with Cyberlindnera jadinii, 370 µM (≈ 129 µg/mL). In [5], this compound showed an MIC of 370 µM (≈ 129 µg/mL).

Turning to `Cc1ncc([N+](=O)[O-])n1CCCCCCCCCCn1cnc2cc(Cl)ccc2c1=O`, the minimal inhibitory concentration (MIC) against Pseudomonas aeruginosa is greater than 1150 µM; with Escherichia coli it was 20 µM (≈ 8.92 µg/mL); with Candida albicans, 20 µM (≈ 8.92 µg/mL); in the assay on Bacillus spizizenii [1], 20 µM (≈ 8.92 µg/mL); in the assay on Staphylococcus aureus [2] it was 20 µM (≈ 8.92 µg/mL); against Saccharomyces cerevisiae, 40 µM (≈ 17.8 µg/mL). In addition, the MIC stood at 20 µM (≈ 8.92 µg/mL) against Micrococcus luteus; 20 µM (≈ 8.92 µg/mL) in the assay with Aspergillus flavus; 40 µM (≈ 17.8 µg/mL) in the assay with Staphylococcus aureus [4]; 20 µM (≈ 8.92 µg/mL) in the assay on Bacillus sp.; 40 µM (≈ 17.8 µg/mL) with Candida; 20 µM (≈ 8.92 µg/mL) in the assay with Cyberlindnera jadinii. The MIC in [5] was 20 µM (≈ 8.92 µg/mL).

Take `Cc1ncc([N+](=O)[O-])n1CCCCCCn1cnc2cc(Cl)ccc2c1=O`: the MIC was greater than 1310 µM against Pseudomonas aeruginosa; 40 µM (≈ 15.6 µg/mL) with Escherichia coli; 20 µM (≈ 7.8 µg/mL) against Candida albicans; 40 µM (≈ 15.6 µg/mL) with Bacillus spizizenii [1]; 20 µM (≈ 7.8 µg/mL) with Staphylococcus aureus [2]; 20 µM (≈ 7.8 µg/mL) with Saccharomyces cerevisiae. In addition, the MIC against Micrococcus luteus amounted to 40 µM (≈ 15.6 µg/mL); in the assay on Aspergillus flavus, 40 µM (≈ 15.6 µg/mL); against Staphylococcus aureus [4], 20 µM (≈ 7.8 µg/mL); against Bacillus sp., 20 µM (≈ 7.8 µg/mL); against Candida, 20 µM (≈ 7.8 µg/mL); in the assay on Cyberlindnera jadinii, 20 µM (≈ 7.8 µg/mL). The lowest concentration to inhibit growth in assay [5] (MIC) was 20 µM (≈ 7.8 µg/mL).

Regarding `Cc1ncc([N+](=O)[O-])n1CCCCCn1cnc2cc(Cl)ccc2c1=O`, the MIC in the assay with Pseudomonas aeruginosa is greater than 1360 µM; in the assay on Escherichia coli, 20 µM (≈ 7.52 µg/mL); in the assay with Candida albicans it was 20 µM (≈ 7.52 µg/mL); in the assay on Bacillus spizizenii [1], 20 µM (≈ 7.52 µg/mL); against Staphylococcus aureus [2] it was 40 µM (≈ 15 µg/mL); in the assay on Saccharomyces cerevisiae, 40 µM (≈ 15 µg/mL). Moreover, the MIC in the assay on Micrococcus luteus was determined as 40 µM (≈ 15 µg/mL); in the assay with Aspergillus flavus, 20 µM (≈ 7.52 µg/mL); against Staphylococcus aureus [4], 20 µM (≈ 7.52 µg/mL); against Bacillus sp., 20 µM (≈ 7.52 µg/mL); in the assay with Candida, 20 µM (≈ 7.52 µg/mL); against Cyberlindnera jadinii it was 20 µM (≈ 7.52 µg/mL). Also, the minimum inhibitory concentration (MIC) in [5] worked out at 20 µM (≈ 7.52 µg/mL).

As to `O=c1c2ccc(Cl)cc2ncn1CCCCCCCCCCn1cnc([N+](=O)[O-])c1`, the minimal inhibitory concentration (MIC) came to 70 µM (≈ 30.2 µg/mL) in the assay on Pseudomonas aeruginosa; 150 µM (≈ 64.8 µg/mL) in the assay with Escherichia coli; 40 µM (≈ 17.3 µg/mL) against Candida albicans; 40 µM (≈ 17.3 µg/mL) against Bacillus spizizenii [1]; 300 µM (≈ 130 µg/mL) in the assay with Staphylococcus aureus [2]; 70 µM (≈ 30.2 µg/mL) against Saccharomyces cerevisiae. Moreover, the MIC came to 40 µM (≈ 17.3 µg/mL) against Micrococcus luteus; 150 µM (≈ 64.8 µg/mL) in the assay on Aspergillus flavus; 150 µM (≈ 64.8 µg/mL) against Staphylococcus aureus [4]; 70 µM (≈ 30.2 µg/mL) against Bacillus sp.; 40 µM (≈ 17.3 µg/mL) in the assay with Candida; 150 µM (≈ 64.8 µg/mL) in the assay on Cyberlindnera jadinii. This compound showed an MIC in assay [5] of 300 µM (≈ 130 µg/mL).

Source of the values: ChEMBL document CHEMBL3621068, “Synthesis and biological evaluation of a new class of quinazolinoneazoles as potential antimicrobial agents and their interactions with calf thymus DNA and human serum albumin” (Medchemcomm, 2015).
